From patent US20120004137A1, “IDENTIFICATION OF NUCLEIC ACID DELIVERY VEHICLES USING DNA DISPLAY” (X-Body, Inc., priority 2009, published 2012) come the findings set out here.

Ends that are not written are not given here. * marks the point of attachment. Biotin = O=C1N[C@H]2[C@H](CS[C@H]2CCCCC(=O)*)N1

For this experiment, the system named is HEK293T cells. Description: Transfection-independent cytoplasmic entry, T7 RNAP RT-PCR assay. Format: cell-based. The conditions noted are these: 40 pmol biotin:streptavidin dsDNA-SA-peptide assembly added without transfection reagent to HEK293T cells transiently transfected with T7_pEF/myc/cyto; lysed 18 hours later; FIG. 14 bottom panel. On the procedure: To determine if cytoplasmic T7 would be active as a polymerase in mammalian cells, we developed a transient transfection assay in HEK293T cells (FIG. 5). Cells were seeded in 24-well dishes at 350,000 cells/well and then incubated overnight in Eagle's Minimum Essential Medium supplemented with 10% fetal bovine serum (FBS). A DNA template containing the T7 promoter upstream of the coding region of a VH antibody domain was prepared by PCR as follows. VH DNA from a naïve human VH library was PCR amplified (Strategene 600312) with a 5′ oligo coding for in vitro transcription and translation signal T7TMV (5′-TAATACG […]-3′; SEQ ID NO: 3)) and a 3′ oligo annealing to the C-terminal VH DNA Cmu and SA linker region, Y15 (5′-[…]-3′; SEQ ID NO: 4). The PCR product was gel purified. […] This specific RNA is then detected and amplified by RT-PCR. […]
For the cytoplasmic entry selections to be successful, biotin-streptavidin assemblies of oligonucleotide and encoded peptide or protein must be competent as T7 polymerase templates. To test whether a complex of biotinylated peptide or VH binder assembled with streptavidin can be transfected into cells, transcribed by T7 RNAP, and detected by RT-PCR, the above VH DNA was modified to carry both SP6 and T7 promoter sequences at the 5′ end (5′-[…]-3′; SEQ ID NO: 9) and Cmu-flag-SA-polyA sequence at the 3′ end (FIG. 12). […]

Take Biotin-KKWKMRRNQFWVKVQRG [ANT]: the “cellular uptake / RT-PCR activity as a result of cytoplasmic T7 polymerase activity” value is recorded as “cellular uptake of the peptide assemblies occurs”. To Biotin-YGRKKRRQRRR [TAT] belongs “cellular uptake of the peptide assemblies occurs”.
